What was measured:
chronic pain = experiment: Clinical trial: pain intensity (0-10 point VAS) after single inhalation via metered dose inhaler; assay type: in vivo, human (hospitalized adult patients)
Description: FIG. 5B presents effects of the three different interventions on pain intensity. About 1 VAS point decline in pain intensity was noted during the follow-up period following placebo administration.

[1] = Clinical trial: pharmacokinetic analysis of Δ9-THC plasma levels after single inhalation via metered dose inhaler
Description: An objective of the trial was to evaluate the effects of a single inhalation of vaporized ground cannabis doses comprising 0.5 mg or 1 mg THC, as compared to placebo. […] The patients were licensed to use medical cannabis and were guided to refrain from using cannabis at least 12 hours prior to the trial commencement. The patients were guided how to use the inhaler device and signed a written consent.
The trial included three sessions, with an interval of at least 48 hours between sessions. In each of the sessions, a randomized single dose or placebo was delivered to the patients via inhalation. During each session, at a plurality of pre-defined time points, the patients were cognitively tested using “Cambridge Neuropsychological Test Automated Battery”; questioned for assessment of pain (using the VAS); their blood pressure and heartrate were measured; and they were questioned regarding safety parameters, such as feeling “high”, dizziness, mouth dryness. Blood samples were collected at pre-defined time points for performing a pharmacokinetic analysis of THC (being the active substance, in accordance with some embodiments).

[2] = 0.5 mg dosage, observed at 120 minutes following inhalation
[3] = 1 mg dosage, observed at 60 minutes following inhalation
[4] = single inhalation of 0.5 mg Δ9-THC
[5] = single inhalation of 1 mg Δ9-THC

CCCCCc1cc(O)c2c(c1)OC(C)(C)[C@@H]1CCC(C)=C[C@@H]21 [Δ9-THC, Δ9-tetrahydrocannabinol]
maximum change in VAS pain score (chronic pain; [2]): 1.95 points | maximum change in VAS pain score (percent) (chronic pain; [2]): 24% | decline in pain intensity compared to placebo (chronic pain; 0.5 mg Δ9-THC dose, follow-up period): greater decline in pain intensity | maximum change in VAS pain score (chronic pain; [3]): 2.95 points | maximum change in VAS pain score (percent) (chronic pain; [3]): 39.4% | reduction in VAS compared to placebo (0 mg) and 0.5 mg (chronic pain; 1 mg dose, 15 minutes after inhalation and onward, RM-ANOVA p=0.0015 vs placebo, p=0.0058 vs 0.5 mg): statistically significantly larger | mean area under the curve of plasma concentration vs. time from 0 to infinity (AUC0→infinity) [1, 4]: 300 ± 144 ng/min/mL | time upon which maximum plasma concentration was reached (Tmax) [1, 4]: 3.7 ± 1.4 min | mean maximum plasma Δ9-THC concentration (Cmax) ±SD ([1]; single inhalation of 0.5 mg Δ9-THC, vaporized ground cannabis, 22 of 27 patients analysed): 14.3 ± 7.7 ng/mL | AUC0→infinity [1, 5]: 769 ± 331 ng/min/mL | Cmax ±SD [1, 5]: 33.8 ± 25.7 ng/mL | Tmax [1, 5]: 4.4 ± 2.1 min

Source: patent US20250157614A1, “SUBSTANCE DELIVERY PLANNING SYSTEM” (Syqe Medical Ltd., priority 2019, published 2025)
